The values below come from patent US11957683B2, “Bicyclic compounds” (Aligos Therapeutics, Inc., priority 2021, dated 2024).

Where only a bound is given, the exact number is not on record here.

For one data set, the system named is HBV. The data set is described as follows: HBV-DNA antiviral assay using HepG2.117 cells. The data set is classed as cell-based, HBV genotype D. The settings on record: Hepatitis B virus, 72 h; HBV DNA inhibition, intracellular HBV DNA by qPCR, HepG2.117 cells, 3 days incubation; read-out: EC50. The method, then:
(§1) The following assay procedure describes the HBV antiviral assay, using HepG2.117 cells, which carry a stably integrated genotype D HBV genome under the control of a Tet-off promoter, and intracellular HBV DNA quantification as endpoint. Cell viability is assessed in parallel by measuring the intracellular ATP content using CellTiter-Glo 2.0 (Promega).
On day 0, HepG2.117 cells (which are maintained in routine cell culture with doxycycline present in the medium at a final concentration of 1 μg/mL) are seeded in 96-well plates (white with clear bottom) at a density of 2.0×10^4 cells/well (0.1 mL/well) in medium without doxycycline to induce pgRNA transcription and subsequent formation of HBV particles. The cells are incubated at 37° C. and 5% CO2.
(§2) On day 1, medium is removed from each well, the test articles are diluted in culture medium without doxcycyline and 100 μL was added to cell culture wells (9 concentrations, 4-fold dilution). For each plate, 6 untreated (merely DMSO) wells are included. The final concentration of DMSO in the culture medium is 2%. Each plate is prepared in duplicate (one for HBV DNA extraction, one for CellTiter-Glo 2.0 measurement). The cells are incubated at 37° C. and 5% CO2 for 3 days.
(§3) On day 4, cell viability is assessed using CellTiter-Glo 2.0 and cell lysates are prepared for HBV DNA extraction and subsequent quantification by qPCR.
Medium is removed from each well and 100 μL of 0.33% NP-40 in H2O was added to each well. Plates are sealed, incubated at 4° C. for 5 mins, vortexed extensively and centrifuged briefly. Next, 35 μL of lysate is added to 65 μL QuickExtract DNA Extraction Solution (Epicentre) in a PCR plate for each well. PCR plate is incubated at 65° C. for 6 mins, 98° C. for 2 mins and finally cooled to 4° C. HBV DNA is then quantified by qPCR with HBV-specific primers and probes as specified in Table 2 using the Bio-Rad SSOAdvanced Universal Probes Supermix on a CFX96 machine (Bio-Rad). The PCR cycle program consisted of 95° C. for 3 mins, followed by 40 cycles at 95° C. for 10 sec and 60° C. for 30 sec.
A DNA standard is prepared by dilution of an IDT gBlock corresponding to the amplicon with concentrations ranging from 10^2 to 10^8 copies/input (i.e., per 4 μL) and used to generate a standard curve by plotting Cq values vs. HBV DNA standard concentration. The quantity of HBV DNA in each sample is determined by interpolating from the standard curve.
(§4) Cell viability is calculated as follows: % Cell viability=(luminescence value of test sample)/(average luminescence value of 2% DMSO control)×100%. HBV DNA inhibition was calculated as follows: 100−(HBV DNA copy number of test sample)/(average HBV DNA copy number of 2% DMSO control)×100%. No normalization to entecavir is required due to the excellent dynamic window of this assay. The CC50, EC50 and EC90 values were determined by dose-response curves fitted using non-linear regression.

Data set [1] in a line: Cell viability by CellTiter-Glo 2.0 (intracellular ATP) in HepG2.117 cells. It counts as cell-based. The settings on record: human, CellTiter-Glo 2.0, HepG2.117 cells, 3 days incubation. As to the method: as §1, §2, §3
Using the other plates, the cell viability is quantified by CellTiter-Glo 2.0 according to the manufacturer's manual. In brief, 100 μL of reagent solution is added to the culture plates and shaken for 2′. The plates are incubated at rt for 10 min and luminescence signal is subsequently measured on a VarioSkan Lux (ThermoFisher) plate reader.
as §4

With `C=C[C@H](C)Nc1nc2c(c(=O)n1-c1ccc(C(=O)NC)c(Cl)c1)C[C@@H](C)N(C(=O)c1ccc(Br)c(C(F)(F)F)c1)C2` [Compound 20, 4-((R)-7-(4-bromo-3-(trifluoromethyl)benzoyl)-2-(((S)-but-3-en-2-yl)amino)-6-methyl-4-oxo-5,6,7,8-tetrahydropyrido[3,4-d]pyrimidin-3(4H)-yl)-2-chloro-N-methylbenzamide], the EC50 with HBV is less than 0.05 µM. Also, in data set [1], the cytotoxic concentration (CC50) at 3 days is 2.95 µM.
On the same counts, the results for `C=C[C@@H](C)Nc1nc2c(c(=O)n1-c1ccc(-c3nncn3C)cc1)C[C@@H](C)N(C(=O)c1ccc(Br)c(C(F)(F)F)c1)C2` [Compound 22, (R)-7-(4-bromo-3-(trifluoromethyl)benzoyl)-2-(((R)-but-3-en-2-yl)amino)-6-methyl-3-(4-(4-methyl-4H-1,2,4-triazol-3-yl)phenyl)-5,6,7,8-tetrahydropyrido[3,4-d]pyrimidin-4(3H)-one] are less than 0.05 µM and greater than 50 µM.
For `CNC(=O)c1ccc(-n2c(C#CCC(C)C)nc3c(c2=O)C[C@@H](C)N(C(=O)c2ccc(Br)c(C(F)(F)F)c2)C3)cc1` [Compound 23, (R)-4-(7-(4-bromo-3-(trifluoromethyl)benzoyl)-6-methyl-2-(4-methylpent-1-yn-1-yl)-4-oxo-5,6,7,8-tetrahydropyrido[3,4-d]pyrimidin-3(4H)-yl)-N-methylbenzamide], in that order: 0.05 to 0.5 µM and 11.7 µM.
On the same counts, the results for `C=C[C@H](C)Nc1nc2c(c(=O)n1-c1ccc(C(=O)NC)cn1)C[C@@H](C)N(C(=O)c1ccc(Br)c(C(F)(F)F)c1)C2` [Compound 24, 6-((R)-7-(4-bromo-3-(trifluoromethyl)benzoyl)-2-(((S)-but-3-en-2-yl)amino)-6-methyl-4-oxo-5,6,7,8-tetrahydropyrido[3,4-d]pyrimidin-3(4H)-yl)-N-methylnicotinamide] are less than 0.05 µM and greater than 0.5 µM.
Regarding `C=C[C@H](C)Nc1nc2c(c(=O)n1-c1ccc3ncn(C)c3c1)C[C@@H](C)N(C(=O)c1ccc(Br)c(C(F)(F)F)c1)C2` [Compound 25, (R)-7-(4-bromo-3-(trifluoromethyl)benzoyl)-2-(((S)-but-3-en-2-yl)amino)-6-methyl-3-(1-methyl-1H-benzo[d]imidazol-6-yl)-5,6,7,8-tetrahydropyrido[3,4-d]pyrimidin-4(3H)-one], the EC50 in the data set on HBV is less than 0.05 µM. The CC50 at 3 days in data set [1] turned out to be 29.7 µM.
On the same counts, the results for `C=C[C@H](C)Nc1nc2c(c(=O)n1-c1cnc3c(c1)ncn3C)C[C@@H](C)N(C(=O)c1ccc(Br)c(C(F)(F)F)c1)C2` [Compound 26, (R)-7-(4-bromo-3-(trifluoromethyl)benzoyl)-2-(((S)-but-3-en-2-yl)amino)-6-methyl-3-(3-methyl-3H-imidazo[4,5-b]pyridin-6-yl)-5,6,7,8-tetrahydropyrido[3,4-d]pyrimidin-4(3H)-one] are less than 0.05 µM and greater than 0.5 µM.
On the same counts, the results for `C=C[C@H](C)Nc1nc2c(c(=O)n1-c1ccc(-c3cnn(C)c3)cc1)C[C@@H](C)N(C(=O)c1ccc(Br)c(C(F)(F)F)c1)C2` [Compound 27, (R)-7-(4-bromo-3-(trifluoromethyl)benzoyl)-2-(((S)-but-3-en-2-yl)amino)-6-methyl-3-(4-(1-methyl-1H-pyrazol-4-yl)phenyl)-5,6,7,8-tetrahydropyrido[3,4-d]pyrimidin-4(3H)-one] are less than 0.05 µM and 22.8 µM.
On the same counts, the results for `C=C[C@H](C)Nc1nc2c(c(=O)n1-c1ccc3c(c1)nc(C)n3C)C[C@@H](C)N(C(=O)c1ccc(Br)c(C(F)(F)F)c1)C2` [Compound 28, (R)-7-(4-bromo-3-(trifluoromethyl)benzoyl)-2-(((S)-but-3-en-2-yl)amino)-3-(1,2-dimethyl-1H-benzo[d]imidazol-5-yl)-6-methyl-5,6,7,8-tetrahydropyrido[3,4-d]pyrimidin-4(3H)-one] are less than 0.05 µM and 30.5 µM.
Take `C=CC(C)(C)Nc1nc2c(c(=O)n1-c1ccc3c(c1)ncn3C)C[C@@H](C)N(C(=O)c1ccc(Br)c(C(F)(F)F)c1)C2` [Compound 29, (R)-7-(4-bromo-3-(trifluoromethyl)benzoyl)-6-methyl-3-(1-methyl-1H-benzo[d]imidazol-5-yl)-2-((2-methylbut-3-en-2-yl)amino)-5,6,7,8-tetrahydropyrido[3,4-d]pyrimidin-4(3H)-one]: the EC50 in the data set with HBV is less than 0.05 µM. The CC50 at 3 days in data set [1] is 30.5 µM.
On the same counts, the results for `C=C[C@H](C)Nc1nc2c(c(=O)n1-c1ccc(C(=O)NC)nn1)C[C@@H](C)N(C(=O)c1ccc(Br)c(C(F)(F)F)c1)C2` [Compound 30, 6-((R)-7-(4-bromo-3-(trifluoromethyl)benzoyl)-2-(((S)-but-3-en-2-yl)amino)-6-methyl-4-oxo-5,6,7,8-tetrahydropyrido[3,4-d]pyrimidin-3(4H)-yl)-N-methylpyridazine-3-carboxamide] are less than 0.05 µM and greater than 50 µM.
On the same counts, the results for `C=C[C@H](C)Nc1nc2c(c(=O)n1-c1cc3ncn(C)c3cc1F)C[C@@H](C)N(C(=O)c1ccc(Br)c(C(F)(F)F)c1)C2` [Compound 32a, (R)-7-(4-bromo-3-(trifluoromethyl)benzoyl)-2-(((S)-but-3-en-2-yl)amino)-3-(6-fluoro-1-methyl-1H-benzo[d]imidazol-5-yl)-6-methyl-5,6,7,8-tetrahydropyrido[3,4-d]pyrimidin-4(3H)-one] are less than 0.05 µM and 29.5 µM.
`C=C[C@H](C)Nc1nc2c(c(=O)n1-c1ccc3c(cnn3C)c1)C[C@@H](C)N(C(=O)c1ccc(Br)c(C(F)(F)F)c1)C2` [Compound 33, (6R)-7-[4-bromo-3-(trifluoromethyl)benzoyl]-6-methyl-2-[[(1S)-1-methylallyl]amino]-3-(1-methylindazol-5-yl)-6,8-dihydro-5H-pyrido[3,4-d]pyrimidin-4-one]: the concentration giving a half-maximal response (EC50) with HBV is less than 0.05 µM. Moreover, the 50% cytotoxic concentration (CC50) at 3 days in data set [1] was greater than 50 µM.
Consider `C=C[C@H](C)Nc1nc2c(c(=O)n1-c1cc(Cl)c3c(cnn3C)c1)C[C@@H](C)N(C(=O)c1ccc(Br)c(C(F)(F)F)c1)C2` [Compound 34], for which, in the data set on HBV, the EC50 is less than 0.05 µM. For the same compound, the CC50 at 3 days in data set [1] is 11.6 µM.
Turning to `C=C[C@H](C)Nc1nc2c(c(=O)n1-c1ccc3c(c1)ncn3CC(F)(F)F)C[C@@H](C)N(C(=O)c1ccc(Br)c(C(F)(F)F)c1)C2` [Compound 35, (6R)-7-[4-bromo-3-(trifluoromethyl)benzoyl]-6-methyl-2-[[(1S)-1-methylallyl]amino]-3-[1-(2,2,2-trifluoroethyl)benzimidazol-5-yl]-6,8-dihydro-5H-pyrido[3,4-d]pyrimidin-4-one], the EC50 with HBV was less than 0.05 µM. The CC50 at 3 days in data set [1] came out at 28.5 µM.
As to `C=C[C@H](C)Nc1nc2c(c(=O)n1-c1ccn3c(C)nnc3c1)C[C@@H](C)N(C(=O)c1ccc(Br)c(C(F)(F)F)c1)C2` [Compound 36, (6R)-7-[4-bromo-3-(trifluoromethyl)benzoyl]-6-methyl-2-[[(1S)-1-methylallyl]amino]-3-(3-methyl-[1,2,4]triazolo[4,3-a]pyridin-7-yl)-6,8-dihydro-5H-pyrido[3,4-d]pyrimidin-4-one], the concentration giving a half-maximal response (EC50) with HBV is less than 0.05 µM. Besides, in data set [1], the CC50 at 3 days was greater than 50 µM.
